For the experiment, the target named is Traf2- and Nck-interacting kinase (TNIK) (Homo sapiens, UniProt Q9UKE5). As to the kind of experiment: ATP competition binding assay (KdELECT, KINOMEscan), triplicate 11-point dose-response curves.
Traf2- and Nck-interacting kinase (TNIK), sequence (Q9UKE5 whole entry): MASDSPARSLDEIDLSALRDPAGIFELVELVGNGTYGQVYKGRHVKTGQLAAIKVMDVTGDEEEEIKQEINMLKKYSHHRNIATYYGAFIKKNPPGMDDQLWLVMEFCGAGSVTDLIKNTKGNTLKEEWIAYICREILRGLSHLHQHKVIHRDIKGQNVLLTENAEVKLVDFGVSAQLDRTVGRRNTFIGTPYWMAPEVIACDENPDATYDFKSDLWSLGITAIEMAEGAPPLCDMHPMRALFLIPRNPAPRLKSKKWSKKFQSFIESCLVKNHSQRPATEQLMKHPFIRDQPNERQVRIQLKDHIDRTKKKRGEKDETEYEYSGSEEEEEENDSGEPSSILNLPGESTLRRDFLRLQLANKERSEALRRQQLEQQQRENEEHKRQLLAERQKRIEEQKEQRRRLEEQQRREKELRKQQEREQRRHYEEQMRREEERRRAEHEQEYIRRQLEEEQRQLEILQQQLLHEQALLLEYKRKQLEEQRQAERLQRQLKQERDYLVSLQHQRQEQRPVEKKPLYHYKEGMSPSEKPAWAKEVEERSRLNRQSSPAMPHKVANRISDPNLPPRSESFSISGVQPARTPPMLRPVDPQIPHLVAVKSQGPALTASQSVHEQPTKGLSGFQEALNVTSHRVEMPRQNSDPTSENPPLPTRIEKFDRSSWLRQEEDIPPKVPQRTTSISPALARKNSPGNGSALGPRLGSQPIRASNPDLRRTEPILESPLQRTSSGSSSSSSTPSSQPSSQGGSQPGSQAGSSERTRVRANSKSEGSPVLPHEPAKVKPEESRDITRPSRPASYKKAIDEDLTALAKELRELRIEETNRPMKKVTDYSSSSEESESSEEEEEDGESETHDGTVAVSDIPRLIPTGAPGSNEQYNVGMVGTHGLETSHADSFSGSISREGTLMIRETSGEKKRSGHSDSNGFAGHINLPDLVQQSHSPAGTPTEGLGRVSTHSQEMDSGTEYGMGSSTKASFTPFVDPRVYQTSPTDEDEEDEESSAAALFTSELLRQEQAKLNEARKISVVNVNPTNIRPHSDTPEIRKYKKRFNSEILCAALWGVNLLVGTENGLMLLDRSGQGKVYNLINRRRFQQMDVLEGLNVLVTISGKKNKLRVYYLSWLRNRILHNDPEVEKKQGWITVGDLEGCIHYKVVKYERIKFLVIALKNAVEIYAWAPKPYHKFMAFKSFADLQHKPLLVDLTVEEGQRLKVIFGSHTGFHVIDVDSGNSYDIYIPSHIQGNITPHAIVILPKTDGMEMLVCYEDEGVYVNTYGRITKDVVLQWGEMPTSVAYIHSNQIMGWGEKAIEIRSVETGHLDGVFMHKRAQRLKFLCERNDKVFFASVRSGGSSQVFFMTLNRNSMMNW

With `Cc1ccc(C(=O)Nc2sc(Nc3ccccc3)nc2C(N)=O)cc1` [KY-05009, 5-(4-methylbenzamido)-2-(phenylamino)thiazole-4-carboxamide], the inhibition constant Ki (usually a measure of affinity in units of concentration, obtained from inhibition or displacement) is 100 nM.

The values above are taken from article PMC4206343, “A Novel Aminothiazole KY-05009 with Potential to Inhibit Traf2- and Nck-Interacting Kinase (TNIK) Attenuates TGF-β1-Mediated Epithelial-to-Mesenchymal Transition in Human Lung Adenocarcinoma A549 Cells” (PLoS ONE, 2014).
